{"source": "patent US20240148895A1", "about": "“ANTIBODY-DRUG CONJUGATE” (Eisai R&D Management Co., Ltd., priority 2022, published 2024)", "key": {"AsPC-1/Cas9 cell line": {"tested_on": "AsPC-1/Cas9 cell line", "assay": "AsPC-1/Cas9 growth inhibition assay", "format": "cell-based, human", "conditions": "AsPC-1/Cas9 cells, 5 days culture, CellTiter Glo 2.0, read-out: Absolute IC50—Day 5 (nM) AsPC-1 Cas9", "description": "The human pancreatic cancer cell line AsPC-1 (ATCC Number CRL1682) was infected with Edit-R Lentiviral hCMV-Blast-Cas9 Nuclease Particle (Dharmacon, VCAS10124) in the presence of 8 μg/ml of Hexadimethrine bromide (Sigma, H9268), and after 24 hours it was exposed to 10 μg/ml of Blastcidin S (Thermo, A11139) to remove the uninfected cells, thereby establishing an AsPC-1/Cas9 cell line. The cells were maintenance cultured in a 5% CO2 incubator (37° C.) using RPMI-1640 (FujiFilm-Wako Pure Chemical Industries) containing 10% fetal bovine serum (FBS: SIGMA 173012) and penicillin/streptomycin (FujiFilm-Wako Pure Chemical Industries) (hereunder referred to simply as “culture medium”). After adding 45 μL of AsPC-1/Cas9 cell suspension prepared to 2.0×10^4 cells/mL using culture medium into each well of a 384-well plate (Greiner 781091), the cells were cultured overnight in a 5% CO2 incubator (37° C.). On the following day, 5 μL of the test substance diluted with culture medium was added to each well, and culturing was continued for 5 days in a 5% CO2 incubator (37° C.). Next, 25 μL of CellTiter Glo™ 2.0 (Promega) was added to each well, and the plate contents were mixed for 5 minutes using a plate mixer. The plate was stationed for 10 minutes at room temperature while shielded from light, and then the luminous intensity was measured with an ENVISION™ (Perkin-Elmer). The luminescence value of the wells with addition of test substance was determined as a relative value, with 100% as the luminescence value of the wells with cells but without addition of the test substance, and 0% as the luminescence value of the wells without cells. A plot of test substance concentration against luminescence value % approximated a 4-parameter logistic curve, and the test substance concentration necessary for 50% inhibition of cell growth (Absolute IC50) was calculated, and is shown in Table 4."}, "[1]": {"target": "HiBiT tagged BRD4-BD1 protein in HEK293/LgBiT/hPGK/HiBiT-BRD4-BD1 cells (Homo sapiens, UniProt O60885)", "assay": "BET BD1 domain degradation assay", "format": "cell-based", "design": "HiBit-linker-BRD4 BD1(1-209); host or cells: HEK293 (ATCC CRL-1573) stably transduced with LgBiT and HiBiT-BRD4-BD1", "conditions": "concentration for 50% reduction in HiBiT-BRD4-BD1 protein level, 3 hours, read-out: Absolute DC50—3 h (nM) HEK293_HiBiT-BRD4-BD1", "from_the_text": "HEK293/LgBiT/hPGK/HiBiT-BRD4-BD1 cells were established by introducing LgBiT and HiBiT-BRD4-BD1 into the human fetus renal cell line HEK293 (ATCC Number CRL-1573). LgBiT was introduced using lentivirus vector LV[Exp]-Bsd-EFS>{LgBiT}, and HiBiT-BRD4-BD1 was introduced with lentivirus vector LV[Exp]-Puro-hPGK>{HiBit-linker-BRD4 BD1(1-209)}. The vector plasmids LV[Exp]-Bsd-EFS>{LgBiT} and LV[Exp]-Puro-hPGK>{HiBit-linker-BRD4_BD1(1-209)} were constructed by VectorBuilder Co. The lentivirus was produced using a Mission Lentivirus Packaging Mix (Sigma) according to the manufacturer's protocol. Viral infection and drug selection of infected cells were carried out by the following published method (Akagi T. et. al, PNAS 2003; 100:13567-72). The cells were maintenance cultured in a 5% CO2 incubator (37° C.), using culture medium. A 45 μL portion of cell suspension of HEK293/LgBiT/hPGK/HiBiT-BRD4-BD1 cells prepared to 6.7×10^4 cells/mL using culture medium was added to each well of a collagen I-coated 384-well plate (Falcon 356667), and the cells were cultured overnight in a 5% CO2 incubator (37° C.). On the following day, 5 μL of test substance diluted with RPMI-1640 (FujiFilm-Wako Pure Chemical Industries) containing 10% fetal bovine serum (FBS: SIGMA 173012) and penicillin/streptomycin (FujiFilm-Wako Pure Chemical Industries) was added to each well, and culturing was continued for 3 hours in a 5% CO2 incubator (37° C.). The luminous intensity was measured using a Nono-Glo HiBiT Lytic Detection System (Promega), and the intracellular HiBiT tagged BRD4-BD1 protein level was calculated. After culturing, 25 μL of measuring reagent was added to each well and the plate contents were mixed for 5 minutes using a plate mixer. The plate was stationed for 10 minutes at room temperature while shielded from light, and then the luminous intensity was measured with an ENVISION′ (Perkin-Elmer). The luminescence value of the wells with addition of test substance was determined as a relative value, with 100% as the luminescence value of the wells with cells but without addition of the test substance, and 0% as the luminescence value of the wells without cells. A plot of test substance concentration against luminescence value % approximated a 4-parameter logistic curve, and the test substance concentration necessary for 50% reduction in protein level (Absolute DC50) was calculated and is shown in Table 4."}}, "note": "Where two headings read alike, the source gives them in different places.", "data": [{"smiles": "COc1ccc(C(=O)NC2(C)CCN(C3CCN(c4nc([C@@](CO)(OC5CC5)c5ccccc5)c5cc(-c6cn(C)c(=O)c7[nH]ccc67)ccc5n4)CC3)CC2)cc1N1CCC(=O)NC1=O", "note": "(stereo in doubt) [Example 104, N-(1′-(4-(1-Cyclopropoxy-2-hydroxy-1-phenylethyl)-6-(6-methyl-7-oxo-6,7-dihydro-1H-pyrrolo[2,3-c]pyridin-4-yl)quinazolin-2-yl)-4-methyl-[1,4′-bipiperidin]-4-yl)-3-(2,4-dioxotetrahydropyrimidine-1(2H)-yl)-4-methoxybenzamide]", "values": [{"measurement": "IC50", "setting": "AsPC-1/Cas9 cell line; Homo sapiens, ASPC1, 120 h", "result": 0.073, "unit": "nM"}, {"measurement": "DC50", "setting": "[1]", "result": 0.15, "unit": "nM"}]}, {"smiles": "COc1ccc(C#CCNC2(C)CCN(C3CCN(c4nc(C(CO)(OC5CC5)c5ccccc5)c5cc(-c6cn(C)c(=O)c7[nH]ccc67)ccc5n4)CC3)CC2)cc1N1CCC(=O)NC1=O", "note": "(stereo in doubt) [Example 145, (R)-1-(5-(3-((1′-(4-(1-Cyclopropoxy-2-hydroxy-1-phenylethyl)-6-(6-methyl-7-oxo-6,7-dihydro-1H-pyrrolo[2,3-c]pyridin-4-yl)quinazolin-2-yl)-4-methyl-[1,4′-bipiperidin]-4-yl)amino)prop-1-yn-1-yl)-2-methoxyphenyl)dihydropyrimidine-2,4(1H,3H)-dione]", "values": [{"measurement": "IC50", "setting": "AsPC-1/Cas9 cell line", "result": 0.18, "unit": "nM"}, {"measurement": "DC50", "setting": "[1]", "result": 0.045, "unit": "nM"}]}, {"smiles": "COc1ccc(C#CCNC2(C)CCN(C3CCN(c4nc([C@@](CO)(OC5CC5)c5ccccc5)c5cc(-c6cn(C)c(=O)c7[nH]ccc67)ccc5n4)CC3)CC2)cc1N1CCC(=O)NC1=O", "note": "[Example 101, (S)-1-(5-(3-((1′-(4-(1-Cyclopropoxy-2-hydroxy-1-phenylethyl)-6-(6-methyl-7-oxo-6,7-dihydro-1H-pyrrolo[2,3-c]pyridin-4-yl)quinazolin-2-yl)-4-methyl-[1,4′-bipiperidin]-4-yl)amino)prop-1-yn-1-yl)-2-methoxyphenyl)dihydropyrimidine-2,4(1H,3H)-dione]", "values": [{"measurement": "IC50", "setting": "AsPC-1/Cas9 cell line", "result": 0.087, "unit": "nM"}, {"measurement": "DC50", "setting": "[1]", "result": 0.083, "unit": "nM"}]}, {"smiles": "Cn1cc(-c2ccc3nc(N4CC(OC5CCN(C(=O)c6cccc(N7CCC(=O)NC7=O)c6)CC5)C4)nc([C@@](CO)(OC4CC4)c4ccccc4)c3c2)c2cc[nH]c2c1=O", "note": "[Example 103, (S)-1-(3-(4-((1-(4-(1-Cyclopropoxy-2-hydroxy-1-phenylethyl)-6-(6-methyl-7-oxo-6,7-dihydro-1H-pyrrolo[2,3-c]pyridin-4-yl)quinazolin-2-yl)azetidin-3-yl)oxy)piperidine-1-carbonyl)phenyl)dihydropyrimidine-2,4(1H,3H)-dione]", "values": [{"measurement": "IC50", "setting": "AsPC-1/Cas9 cell line; Homo sapiens, ASPC1, 120 h", "result": 0.073, "unit": "nM"}, {"measurement": "DC50", "setting": "[1]", "result": 0.045, "unit": "nM"}]}, {"smiles": "COc1ccc(C(=O)NC2(C)CCN(CC3CCN(c4nc(C(CO)(OC5CC5)c5ccccc5)c5cc(-c6cn(C)c(=O)c7occc67)ccc5n4)CC3)CC2)cc1N1CCC(=O)NC1=O", "note": "(centres unmarked) [Example 108, N-(1-((1-(4-(1-Cyclopropoxy-2-hydroxy-1-phenylethyl)-6-(6-methyl-7-oxo-6,7-dihydrofuro[2,3-c]pyridin-4-yl)quinazolin-2-yl)piperidin-4-yl)methyl)-4-methylpiperidin-4-yl)-3-(2,4-dioxotetrahydropyrimidine-1(2H)-yl)-4-methoxybenzamide]", "values": [{"measurement": "IC50", "setting": "AsPC-1/Cas9 cell line; Homo sapiens, ASPC1, 120 h", "result": 0.23, "unit": "nM"}, {"measurement": "DC50", "setting": "[1]", "result": 0.21, "unit": "nM"}]}, {"smiles": "COc1ccc(C(=O)N2C[C@H](C)N(C3CCN(c4nc([C@@](CN)(OC5CC5)c5ccccc5)c5cc(-c6cn(C)c(=O)c7[nH]ccc67)ccc5n4)CC3)C[C@H]2C)cc1N1CCC(=O)NC1=O", "note": "[Example 114, 1-(5-((2R,5 S)-4-(1-(4-((R)-2-Amino-1-cyclopropoxy-1-phenylethyl)-6-(6-methyl-7-oxo-6,7-dihydro-1H-pyrrolo[2,3-c]pyridin-4-yl)quinazolin-2-yl)piperidin-4-yl)-2,5-dimethylpiperazine-1-carbonyl)-2-methoxyphenyl)dihydropyrimidine-2,4(1H,3H)-dione]", "values": [{"measurement": "IC50", "setting": "AsPC-1/Cas9 cell line; Homo sapiens, ASPC1, 120 h", "result": 0.11, "unit": "nM"}, {"measurement": "DC50", "setting": "[1]", "result": 0.33, "unit": "nM"}]}, {"smiles": "COc1ccc(C(=O)N2C[C@H](C)N(CC3CCN(c4nc([C@@](CN)(OC5CC5)c5ccccc5)c5cc(-c6cn(C)c(=O)c7[nH]ccc67)ccc5n4)CC3)C[C@H]2C)cc1N1CCC(=O)NC1=O", "note": "[Example 115, 1-(5-((2R,5 S)-4-((1-(4-((R)-2-Amino-1-cyclopropoxy-1-phenylethyl)-6-(6-methyl-7-oxo-6,7-dihydro-1H-pyrrolo[2,3-c]pyridin-4-yl)quinazolin-2-yl)piperidin-4-yl)methyl)-2,5-dimethylpiperazine-1-carbonyl)-2-methoxyphenyl)dihydropyrimidine-2,4-(1H,3H)-dione]", "values": [{"measurement": "IC50", "setting": "AsPC-1/Cas9 cell line; Homo sapiens, ASPC1, 120 h", "result": 0.11, "unit": "nM"}, {"measurement": "DC50", "setting": "[1]", "result": 0.15, "unit": "nM"}]}, {"smiles": "CNCCN(C)C(=O)OCC(OC1CC1)(c1ccccc1)c1nc(N2CCC(CN3C[C@@H](C)N(C(=O)c4ccc(OC)c(N5CCC(=O)NC5=O)c4)C[C@@H]3C)CC2)nc2ccc(-c3cn(C)c(=O)c4[nH]ccc34)cc12", "note": "(stereo partly drawn) [Example 119, 2-Cyclopropoxy-2-(2-(4-(((2S,5R)-4-(3-(2,4-dioxotetrahydropyrimidine-1(2H)-yl)-4-methoxybenzoyl)-2,5-dimethylpiperazin-1-yl)methyl)piperidin-1-yl)-6-(6-methyl-7-oxo-6,7-dihydro-1H-pyrrolo[2,3-c]pyridin-4-yl)quinazolin-4-yl)-2-phenylethyl methyl(2-(methylamino)ethyl)carbamate]", "values": [{"measurement": "IC50", "setting": "AsPC-1/Cas9 cell line; Homo sapiens, ASPC1, 120 h", "result": 0.23, "unit": "nM"}, {"measurement": "DC50", "setting": "[1]", "result": 1.6, "unit": "nM"}]}, {"smiles": "CNCCN(C)C(=O)OCC(OC1CC1)(c1ccccc1)c1nc(N2CCC(C#Cc3ccc(OC)c(N4CCC(=O)NC4=O)c3)CC2)nc2ccc(-c3cn(C)c(=O)c4[nH]ccc34)cc12", "note": "(centres unmarked) [Example 120, 2-Cyclopropoxy-2-(2-(4-((3-(2,4-dioxotetrahydropyrimidine-1(2H)-yl)-methoxyphenyl)ethynyl)piperidin-1-yl)-6-(6-methyl-7-oxo-6,7-dihydro-1H-pyrrolo[2,3-c]pyridin-4-yl)quinazolin-4-yl)-2-phenylethyl methyl(2-(methylamino)ethyl)carbamate]", "values": [{"measurement": "IC50", "setting": "AsPC-1/Cas9 cell line; Homo sapiens, ASPC1, 120 h", "result": 0.58, "unit": "nM"}, {"measurement": "DC50", "setting": "[1]", "result": 2.9, "unit": "nM"}]}, {"smiles": "Cc1cc(-c2ccc3nc(N4CCC(CN5CCN(C(=O)COc6cccc7c6C(=O)N(C6CCC(=O)NC6=O)C7=O)CC5)CC4)nc(C(CO)(OC4CC4)c4ccccc4)c3c2)cn(C)c1=O", "note": "(centres unmarked) [Example 122, 4-(2-(4-((1-(4-(1-Cyclopropoxy-2-hydroxy-1-phenylethyl)-6-(1,5-dimethyl-6-oxo-1,6-dihydropyridin-3-yl)quinazolin-2-yl)piperidin-4-yl)methyl)piperazin-1-yl)-2-oxoethoxy)-2-(2,6-dioxopiperidin-3-yl)isoindoline-1,3-dione]", "values": [{"measurement": "IC50", "setting": "AsPC-1/Cas9 cell line; Homo sapiens, ASPC1, 120 h", "result": 4.9, "unit": "nM"}, {"measurement": "DC50", "setting": "[1]", "result": 0.15, "unit": "nM"}]}]}
